In ChEMBL document CHEMBL3871274 (Eur J Med Chem, 2016):

How the values were obtained:
[1] = Growth inhibition of human HCT116 cells after 96 hrs by MTS assay; format: functional; conditions: HCT-116, 96 h
Aurora kinase B [2] = target: T1, Aurora kinase B (Homo sapiens, UniProt Q96GD4)
[3] = target: Tyrosine-protein kinase ABL1 (Homo sapiens) (UniProt P00519); assay: Inhibition of human recombinant full-length His-tagged ABL1 cytoplasmic domain expressed in baculovirus expression system at 1 uM
Aurora kinase B [4] = target: T1, Aurora kinase B; assay: Inhibition of human recombinant full-length His-tagged Aurora B expressed in baculovirus expression system at 1 uM
[5] = target: Aurora kinase C (Homo sapiens) (UniProt Q9UQB9); assay: Inhibition of human recombinant full-length GST-tagged Aurora C expressed in baculovirus expression system at 1 uM
[6] = target: Cyclin-dependent kinase 1 (Homo sapiens) (UniProt P06493); assay: Inhibition of CDK1 (unknown origin) at 1 uM
Cyclin-dependent kinase 1 (Homo sapiens), sequence (P06493 whole entry, looked up): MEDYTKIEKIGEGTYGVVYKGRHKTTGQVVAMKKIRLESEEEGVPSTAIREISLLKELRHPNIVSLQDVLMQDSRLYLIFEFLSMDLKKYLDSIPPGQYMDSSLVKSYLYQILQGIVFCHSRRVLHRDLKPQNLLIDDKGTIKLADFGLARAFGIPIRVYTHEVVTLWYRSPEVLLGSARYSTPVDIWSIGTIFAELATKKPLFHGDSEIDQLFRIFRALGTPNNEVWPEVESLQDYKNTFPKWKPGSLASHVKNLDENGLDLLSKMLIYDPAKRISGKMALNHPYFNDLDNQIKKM

[7] = target: Cyclin-dependent kinase 2 (Homo sapiens) (UniProt P24941); assay: Inhibition of CDK2 (unknown origin) at 1 uM
[8] = target: Serine/threonine-protein kinase Chk1 (Homo sapiens) (UniProt O14757); assay: Inhibition of human recombinant full-length His-tagged CHK1 expressed in baculovirus expression system at 1 uM
[9] = target: Serine/threonine-protein kinase Chk2 (Homo sapiens) (UniProt O96017); assay: Inhibition of human recombinant full-length His-tagged CHK2 expressed in baculovirus expression system at 1 uM
[10] = target: Vascular endothelial growth factor receptor 1 (Homo sapiens, UniProt P17948); assay: Inhibition of human recombinant GST-tagged FLT1 cytoplasmic domain (781 to 1338 residues) expressed in baculovirus expression system at 1 uM
[11] = target: Receptor-type tyrosine-protein kinase FLT3 (Homo sapiens) (UniProt P36888); assay: Inhibition of human recombinant His-tagged FLT3 cytoplasmic domain (564 to 958 residues) expressed in baculovirus expression system at 1 uM
[12] = target: Vascular endothelial growth factor receptor 3 (Homo sapiens, UniProt P35916); assay: Inhibition of human recombinant GST-tagged FLT4 cytoplasmic domain (800 to 1297 residues) expressed in baculovirus expression system at 1 uM
[13] = target: Tyrosine-protein kinase JAK1 (Homo sapiens) (UniProt P23458); assay: Inhibition of human recombinant GST-tagged JAK1 cytoplasmic domain (866 to 1154 residues) expressed in baculovirus expression system at 1 uM
Tyrosine-protein kinase JAK1 (Homo sapiens), sequence (P23458 whole entry, the tested form may be a part): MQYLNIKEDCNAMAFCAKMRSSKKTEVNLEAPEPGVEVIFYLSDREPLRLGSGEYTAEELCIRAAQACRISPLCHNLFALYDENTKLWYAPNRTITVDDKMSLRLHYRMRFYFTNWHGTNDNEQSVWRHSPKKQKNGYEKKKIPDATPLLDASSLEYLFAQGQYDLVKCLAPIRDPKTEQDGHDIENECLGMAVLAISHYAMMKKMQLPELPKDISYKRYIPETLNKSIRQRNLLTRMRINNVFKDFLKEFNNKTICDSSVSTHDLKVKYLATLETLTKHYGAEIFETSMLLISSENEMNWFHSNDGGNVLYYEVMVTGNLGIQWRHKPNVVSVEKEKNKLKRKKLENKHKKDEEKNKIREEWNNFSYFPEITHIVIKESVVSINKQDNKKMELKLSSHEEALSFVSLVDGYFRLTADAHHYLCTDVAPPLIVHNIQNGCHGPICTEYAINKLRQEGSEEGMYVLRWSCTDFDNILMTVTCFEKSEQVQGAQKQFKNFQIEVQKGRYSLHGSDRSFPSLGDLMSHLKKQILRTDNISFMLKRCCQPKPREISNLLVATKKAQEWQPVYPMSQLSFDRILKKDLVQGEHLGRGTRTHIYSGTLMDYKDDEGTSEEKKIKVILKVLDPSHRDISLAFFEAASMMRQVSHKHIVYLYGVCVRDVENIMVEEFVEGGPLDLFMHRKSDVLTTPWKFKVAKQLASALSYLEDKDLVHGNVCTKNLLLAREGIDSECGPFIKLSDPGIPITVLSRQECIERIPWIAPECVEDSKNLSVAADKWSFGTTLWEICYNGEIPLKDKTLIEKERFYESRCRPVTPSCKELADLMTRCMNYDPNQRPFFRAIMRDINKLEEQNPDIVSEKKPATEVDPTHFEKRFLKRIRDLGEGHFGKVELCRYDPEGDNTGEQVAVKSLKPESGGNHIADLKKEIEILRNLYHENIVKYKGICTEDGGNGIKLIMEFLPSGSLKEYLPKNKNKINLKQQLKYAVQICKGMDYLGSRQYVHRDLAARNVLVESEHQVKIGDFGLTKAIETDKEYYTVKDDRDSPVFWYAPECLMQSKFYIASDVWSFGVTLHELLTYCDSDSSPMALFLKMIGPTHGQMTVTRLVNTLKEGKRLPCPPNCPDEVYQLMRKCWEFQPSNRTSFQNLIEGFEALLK

[14] = target: Vascular endothelial growth factor receptor 2 (Homo sapiens, UniProt P35968); assay: Inhibition of human recombinant His-tagged KDR cytoplasmic domain (789 to 1356 residues) expressed in baculovirus expression system at 1 uM
[15] = target: Mast/stem cell growth factor receptor Kit (Homo sapiens) (UniProt P10721); assay: Inhibition of human recombinant His-tagged KIT cytoplasmic domain (544 to 976 residues) expressed in baculovirus expression system at 1 uM
Mast/stem cell growth factor receptor Kit (Homo sapiens), sequence (P10721 whole entry, the tested form may be a part): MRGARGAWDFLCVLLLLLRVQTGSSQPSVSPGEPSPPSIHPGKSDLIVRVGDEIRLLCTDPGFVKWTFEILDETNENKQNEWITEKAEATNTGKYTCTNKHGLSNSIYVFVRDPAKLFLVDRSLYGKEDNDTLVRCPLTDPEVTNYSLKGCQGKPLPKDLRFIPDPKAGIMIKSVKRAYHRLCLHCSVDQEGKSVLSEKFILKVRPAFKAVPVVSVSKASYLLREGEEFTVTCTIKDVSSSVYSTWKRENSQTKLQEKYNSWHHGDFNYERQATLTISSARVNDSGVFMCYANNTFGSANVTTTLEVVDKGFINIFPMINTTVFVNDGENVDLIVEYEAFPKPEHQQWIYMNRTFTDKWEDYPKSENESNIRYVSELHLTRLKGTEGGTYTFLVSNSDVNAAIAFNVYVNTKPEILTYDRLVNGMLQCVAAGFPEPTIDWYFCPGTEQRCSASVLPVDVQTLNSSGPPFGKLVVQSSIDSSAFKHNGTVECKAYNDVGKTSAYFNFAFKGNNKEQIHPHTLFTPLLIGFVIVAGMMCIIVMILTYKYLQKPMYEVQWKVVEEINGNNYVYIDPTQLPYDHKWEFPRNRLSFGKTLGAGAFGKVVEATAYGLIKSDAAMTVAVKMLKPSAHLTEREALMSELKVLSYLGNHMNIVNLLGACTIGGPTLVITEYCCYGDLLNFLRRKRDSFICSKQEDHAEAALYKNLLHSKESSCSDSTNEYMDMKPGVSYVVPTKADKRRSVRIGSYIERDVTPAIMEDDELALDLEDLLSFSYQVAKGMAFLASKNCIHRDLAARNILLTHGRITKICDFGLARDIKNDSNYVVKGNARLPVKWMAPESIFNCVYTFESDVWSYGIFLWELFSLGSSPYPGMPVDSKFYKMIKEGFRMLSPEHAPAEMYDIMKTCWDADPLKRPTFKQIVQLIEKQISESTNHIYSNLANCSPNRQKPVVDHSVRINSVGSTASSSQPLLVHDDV

[16] = target: High affinity nerve growth factor receptor (Homo sapiens) (UniProt P04629); assay: Inhibition of human recombinant His-tagged NTRK1 cytoplasmic domain (441 to 796 residues) expressed in baculovirus expression system at 1 uM
[17] = target: Platelet-derived growth factor receptor alpha (Homo sapiens) (UniProt P16234); assay: Inhibition of human recombinant GST-tagged PDGFRalpha cytoplasmic domain (550 to 1089 residues) expressed in baculovirus expression system at 1 uM
Platelet-derived growth factor receptor alpha (Homo sapiens), sequence (P16234 whole entry, the tested form may be a part): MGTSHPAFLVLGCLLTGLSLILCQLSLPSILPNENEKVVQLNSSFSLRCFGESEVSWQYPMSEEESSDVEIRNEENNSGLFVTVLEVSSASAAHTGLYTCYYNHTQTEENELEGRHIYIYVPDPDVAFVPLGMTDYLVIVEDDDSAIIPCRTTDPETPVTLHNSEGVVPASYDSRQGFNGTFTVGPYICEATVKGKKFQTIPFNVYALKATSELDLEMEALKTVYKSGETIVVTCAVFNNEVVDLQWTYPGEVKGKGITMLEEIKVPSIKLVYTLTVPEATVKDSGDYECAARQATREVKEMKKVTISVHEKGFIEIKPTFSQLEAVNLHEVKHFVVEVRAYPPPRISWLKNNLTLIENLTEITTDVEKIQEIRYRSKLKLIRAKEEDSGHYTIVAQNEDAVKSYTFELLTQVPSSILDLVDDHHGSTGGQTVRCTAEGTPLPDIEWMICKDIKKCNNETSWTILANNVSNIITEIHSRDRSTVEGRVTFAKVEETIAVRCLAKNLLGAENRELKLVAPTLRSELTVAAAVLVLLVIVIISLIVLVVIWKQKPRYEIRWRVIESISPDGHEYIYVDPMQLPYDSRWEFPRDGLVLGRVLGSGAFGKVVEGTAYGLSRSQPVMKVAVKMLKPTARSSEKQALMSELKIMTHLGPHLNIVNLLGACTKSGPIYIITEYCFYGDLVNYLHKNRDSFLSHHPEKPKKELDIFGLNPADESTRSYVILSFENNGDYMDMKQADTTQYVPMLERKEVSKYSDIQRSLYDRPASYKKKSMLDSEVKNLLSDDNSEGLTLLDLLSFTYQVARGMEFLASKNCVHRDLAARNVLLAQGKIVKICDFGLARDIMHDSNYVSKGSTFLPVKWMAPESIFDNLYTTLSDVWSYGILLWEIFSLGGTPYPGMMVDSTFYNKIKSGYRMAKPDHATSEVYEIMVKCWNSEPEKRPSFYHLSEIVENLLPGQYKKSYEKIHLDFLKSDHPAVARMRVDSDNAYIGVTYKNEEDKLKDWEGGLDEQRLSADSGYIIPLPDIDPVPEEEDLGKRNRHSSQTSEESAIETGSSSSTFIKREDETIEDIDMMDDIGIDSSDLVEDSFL

[18] = target: Platelet-derived growth factor receptor beta (Homo sapiens) (UniProt P09619); assay: Inhibition of human recombinant His-tagged PDGFRbeta cytoplasmic domain (558 to 1106 residues) expressed in baculovirus expression system at 1 uM
[19] = target: Phosphatidylinositol 4-phosphate 3-kinase C2 domain-containing subunit alpha (Homo sapiens) (UniProt O00443); assay: Inhibition of human recombinant N-terminal GST-tagged PIK3C2A catalytic domain expressed in baculovirus expression system at 1 uM
[20] = target: Phosphatidylinositol 4-phosphate 3-kinase C2 domain-containing subunit beta (Homo sapiens) (UniProt O00750); assay: Inhibition of human recombinant N-terminal GST-tagged PIK3C2B (155 to 1383 residues) catalytic domain expressed in baculovirus expression system at 1 uM
[21] = target: Rho-associated protein kinase 1 (Homo sapiens) (UniProt Q13464); assay: Inhibition of human recombinant GST-tagged ROCK1 catalytic domain (1 to 535 residues) expressed in baculovirus expression system at 1 uM
[22] = target: Proto-oncogene tyrosine-protein kinase receptor Ret (Homo sapiens) (UniProt P07949); assay: Inhibition of human recombinant GST-tagged RET cytoplasmic domain (658 to 1114 residues) expressed in baculovirus expression system at 1 uM
Proto-oncogene tyrosine-protein kinase receptor Ret (Homo sapiens), sequence (P07949 whole entry, the tested form may be a part): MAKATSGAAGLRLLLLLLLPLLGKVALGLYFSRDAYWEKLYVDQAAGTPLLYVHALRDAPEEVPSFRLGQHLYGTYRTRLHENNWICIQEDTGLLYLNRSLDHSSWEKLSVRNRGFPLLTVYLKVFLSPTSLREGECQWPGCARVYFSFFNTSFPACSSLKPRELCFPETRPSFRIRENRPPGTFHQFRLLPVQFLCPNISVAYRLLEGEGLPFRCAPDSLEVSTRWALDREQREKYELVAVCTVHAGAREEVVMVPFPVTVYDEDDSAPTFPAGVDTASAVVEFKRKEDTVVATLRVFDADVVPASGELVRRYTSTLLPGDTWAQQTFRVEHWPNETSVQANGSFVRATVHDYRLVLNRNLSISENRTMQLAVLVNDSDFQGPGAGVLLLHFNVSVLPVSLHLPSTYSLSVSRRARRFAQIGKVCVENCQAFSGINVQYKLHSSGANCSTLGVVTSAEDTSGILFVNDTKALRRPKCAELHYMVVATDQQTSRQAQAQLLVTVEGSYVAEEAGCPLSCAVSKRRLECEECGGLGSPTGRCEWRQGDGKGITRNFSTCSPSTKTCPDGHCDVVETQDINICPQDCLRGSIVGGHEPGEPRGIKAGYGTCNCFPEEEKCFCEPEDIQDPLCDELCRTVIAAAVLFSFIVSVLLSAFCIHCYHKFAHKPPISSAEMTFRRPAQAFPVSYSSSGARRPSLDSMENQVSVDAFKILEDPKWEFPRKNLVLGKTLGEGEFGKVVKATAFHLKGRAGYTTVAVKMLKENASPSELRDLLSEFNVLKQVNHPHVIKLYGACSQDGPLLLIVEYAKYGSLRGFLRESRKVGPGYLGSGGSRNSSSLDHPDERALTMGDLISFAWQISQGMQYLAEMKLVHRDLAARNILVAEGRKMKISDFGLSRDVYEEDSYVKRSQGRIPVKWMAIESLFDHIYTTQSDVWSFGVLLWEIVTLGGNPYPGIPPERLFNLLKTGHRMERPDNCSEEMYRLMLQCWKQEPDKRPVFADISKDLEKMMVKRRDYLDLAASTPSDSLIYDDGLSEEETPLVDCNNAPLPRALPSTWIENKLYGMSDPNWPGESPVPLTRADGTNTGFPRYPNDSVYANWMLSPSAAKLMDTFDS

[23] = target: Rho-associated protein kinase 2 (Homo sapiens) (UniProt O75116); assay: Inhibition of human recombinant N-terminal GST-tagged ROCK2 catalytic domain (1 to 552 residues) expressed in baculovirus expression system at 1 uM
[24] = target: Angiopoietin-1 receptor (Homo sapiens) (UniProt Q02763); assay: Inhibition of human recombinant GST-tagged TEK cytoplasmic domain (817 to 1101 residues) expressed in baculovirus expression system at 1 uM
[25] = target: Dual specificity protein kinase TTK (Homo sapiens) (UniProt P33981); assay: Inhibition of human recombinant full-length GST-tagged TTK expressed in baculovirus expression system at 1 uM
Aurora kinase C = Aurora kinase C (Homo sapiens, UniProt Q9UQB9); assay: Inhibition of human recombinant full-length N-terminal GST-tagged Aurora C (1 to 275 end residues) expressed in baculovirus expression system using GLRRASLG-NH2 as substrate after 20 mins in presence of [gamma-33P]-ATP by liquid scintillation counting

T1 sequence (Q96GD4 whole entry, the tested form may be a part): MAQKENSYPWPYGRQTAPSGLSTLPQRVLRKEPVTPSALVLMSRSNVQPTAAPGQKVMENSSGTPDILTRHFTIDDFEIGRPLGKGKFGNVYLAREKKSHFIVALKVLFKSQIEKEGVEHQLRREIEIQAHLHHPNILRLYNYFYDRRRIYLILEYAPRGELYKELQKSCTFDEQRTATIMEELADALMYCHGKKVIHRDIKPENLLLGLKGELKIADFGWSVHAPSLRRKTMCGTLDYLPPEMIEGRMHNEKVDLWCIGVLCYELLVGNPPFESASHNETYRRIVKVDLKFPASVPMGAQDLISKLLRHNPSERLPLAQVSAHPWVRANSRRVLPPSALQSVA

**Q.** For `O=C(O)/C=C\C(=O)Nc1cccc(-c2n[nH]c3ccc(NS(=O)(=O)c4ccc(F)cc4)cc23)c1`, which GI50 [1] is on record?
**A.** > 20000 nM

**Q.** What about the IC50 (Aurora kinase B [2]) of the same compound?
**A.** 30 nM

**Q.** Which results are given for `O=C(O)/C=C\C(=O)Nc1cccc(-c2n[nH]c3ccc(NS(=O)(=O)c4ccc([N+](=O)[O-])cc4)cc23)c1`?
**A.** GI50 [1]: > 20000 nM; IC50 (Aurora kinase B [2]): 26 nM

**Q.** For `O=C(O)/C=C/C(=O)Nc1cccc(-c2n[nH]c3ccc(NS(=O)(=O)c4ccccc4)cc23)c1`, which GI50 [1] is on record?
**A.** > 20000 nM

**Q.** For `Cc1ccc(S(=O)(=O)Nc2ccc3[nH]nc(-c4cccc(NC(=O)/C=C\C(=O)O)c4)c3c2)cc1`, which GI50 [1] is on record?
**A.** > 20000 nM

**Q.** What about the IC50 (Aurora kinase B [2]) of the same compound?
**A.** 32 nM

**Q.** With `CC(C)(C)c1ccc(S(=O)(=O)Nc2ccc3[nH]nc(-c4cccc(NC(=O)/C=C\C(=O)O)c4)c3c2)cc1` as the compound, how does the GI50 [1] read?
**A.** > 20000 nM

**Q.** With `O=C(O)CCC(=O)Nc1cccc(-c2n[nH]c3ccc(NS(=O)(=O)c4ccccc4)cc23)c1` as the compound, how does the GI50 [1] read?
**A.** > 20000 nM

**Q.** And the IC50 (Aurora kinase B [2])?
**A.** 28 nM

**Q.** For `CCOC(=O)CCC(=O)Nc1cccc(-c2n[nH]c3ccc(NS(=O)(=O)c4ccccc4)cc23)c1`, which GI50 [1] is on record?
**A.** 1900 nM

**Q.** What about the IC50 (Aurora kinase B [2]) of the same compound?
**A.** 64 nM

**Q.** Which GI50 [1] does the source give for `O=C(O)/C=C\C(=O)Nc1cccc(-c2n[nH]c3ccc(NS(=O)(=O)c4ccccc4)cc23)c1` here?
**A.** > 20000 nM

**Q.** What about the inhibition [3] of the same compound?
**A.** 31%

**Q.** And the inhibition (Aurora kinase B [4])?
**A.** 89%

**Q.** And the inhibition [5]?
**A.** 94%

**Q.** And the inhibition [6]?
**A.** 21%

**Q.** What about the inhibition [7] of the same compound?
**A.** 17%

**Q.** And the inhibition [8]?
**A.** 16%

**Q.** What about the inhibition [9] of the same compound?
**A.** 8%

**Q.** And the inhibition [10]?
**A.** 1%

**Q.** And the inhibition [11]?
**A.** 85%

**Q.** And the inhibition [12]?
**A.** 64%

**Q.** What about the inhibition [13] of the same compound?
**A.** 39%

**Q.** And the inhibition [14]?
**A.** 48%

**Q.** What about the inhibition [15] of the same compound?
**A.** -4%

**Q.** And the inhibition [16]?
**A.** 58%

**Q.** And the inhibition [17]?
**A.** 24%

**Q.** And the inhibition [18]?
**A.** -2%

**Q.** What about the inhibition [19] of the same compound?
**A.** 1%

**Q.** And the inhibition [20]?
**A.** 20%

**Q.** And the inhibition [21]?
**A.** 10%

**Q.** What about the inhibition [22] of the same compound?
**A.** 61%

**Q.** What about the inhibition [23] of the same compound?
**A.** 8%

**Q.** What about the inhibition [24] of the same compound?
**A.** 48%

**Q.** And the inhibition [25]?
**A.** 93%

**Q.** What about the IC50 (Aurora kinase B [2]) of the same compound?
**A.** 15 nM

**Q.** For `CC#CC(=O)Nc1cccc(-c2n[nH]c3ccc(NS(=O)(=O)c4ccccc4)cc23)c1`, which GI50 [1] is on record?
**A.** 3600 nM

**Q.** And the IC50 (Aurora kinase B [2])?
**A.** > 1000 nM

**Q.** Which IC50 (Aurora kinase C) does the source give for `O=C(O)[C@]1(Cc2cccc(Nc3nccs3)n2)CC[C@@H](Oc2cccc(Cl)c2F)CC1` [MK-5108] here?
**A.** 12 nM

**Q.** Which GI50 [1] does the source give for `NC(=O)CCC(=O)Nc1cccc(-c2n[nH]c3ccc(NS(=O)(=O)c4ccccc4)cc23)c1` here?
**A.** > 20000 nM

**Q.** What about the IC50 (Aurora kinase B [2]) of the same compound?
**A.** 49 nM

**Q.** For `COc1ccc(S(=O)(=O)Nc2ccc3[nH]nc(-c4cccc(NC(=O)/C=C\C(=O)O)c4)c3c2)cc1`, which GI50 [1] is on record?
**A.** > 20000 nM

**Q.** What about the IC50 (Aurora kinase B [2]) of the same compound?
**A.** 31 nM

**Q.** Which results are given for `CC(C)OC(=O)CCC(=O)Nc1cccc(-c2n[nH]c3ccc(NS(=O)(=O)c4ccccc4)cc23)c1`?
**A.** GI50 [1]: > 20000 nM; IC50 (Aurora kinase B [2]): 220 nM

**Q.** With `O=C(O)/C=C\C(=O)Nc1cccc(-c2n[nH]c3ccc(NS(=O)(=O)c4ccc(-c5ccccc5)cc4)cc23)c1` as the compound, how does the GI50 [1] read?
**A.** > 20000 nM

**Q.** Which GI50 [1] does the source give for `COC(=O)CCC(=O)Nc1cccc(-c2n[nH]c3ccc(NS(=O)(=O)c4ccccc4)cc23)c1` here?
**A.** 12000 nM

**Q.** What about the IC50 (Aurora kinase B [2]) of the same compound?
**A.** 48 nM
